Values quoted from earlier work, collected in publication PMC8435724, “A Single L/D-Substitution at Q4 of the mInsA2-10 Epitope Prevents Type 1 Diabetes in Humanized NOD Mice” (Frontiers in Immunology, 2021).

Tests used:
[1] = test system: insulin B15-23-reactive CD8^+ T cell clone G9C8; settings: cytotoxicity and IFN-γ production assays
T cells of T1D patients = test system: T cells of T1D patients
Text: Thus, human InsA2-10 is likely to be an immunogenic target for diabetic patients.

In the case of “G6H: APL of insulin B15-23 (LYLVCGERG) substituted at position 6 (LYLVCHERG)”, the “antagonist activity on clone G9C8 (in words)” value [1] is given as “antagonist activity”.

In the case of “R8L: APL of insulin B15-23 (LYLVCGERG) substituted at position 8 (LYLVCGELG)”, the “antagonist activity on clone G9C8 (in words)” value [1] is listed as “antagonist activity”.

For “GIVEQCCTSI [InsA1-10, human proinsulin (PPI) 90-99 or InsA1-10 (…)]”, the “presence of specific T cell responses (in words)” value (T cells of T1D patients) is listed as “presence of specific T cell responses”.
